Laboratory results reported in ChEMBL document CHEMBL1287762, “Synthesis and biological evaluation of 3-[4-(amino/methylsulfonyl)phenyl]methylene-indolin-2-one derivatives as novel COX-1/2 and 5-LOX inhibitors” (Bioorg Med Chem Lett, 2010).
Where a name gives a salt, the structure may show the parent alone.

What was measured:
[1] = system: Rattus norvegicus; experiment: Ulcerogenic effect in Wistar rat assessed as gastric ulcer area at 10.12 mg/kg, po administered for 7 days by microscopy; type: toxicity, organism-based, Stomach; parameters: dose 10.12 mg/kg, route oral; settings: in vivo, 168 h
[2] = species on record: Oryctolagus cuniculus; experiment: Selectivity ratio, IC50 for COX-1in rabbit peripheral venous blood to IC50 for COX-2 in rabbit peripheral venous blood; type: tissue-based
[3] = Inhibition of 5-LOX in rabbit peripheral venous blood assessed as formation of […] after 30 mins by HPLC; type: tissue-based, Oryctolagus cuniculus
[4] = molecular target: T1, Prostaglandin G/H synthase 1 (Oryctolagus cuniculus, UniProt O97554); experiment: Inhibition of COX-1 in rabbit peripheral venous blood assessed as formation of 12-hydroxyheptadecatrienoic acid after 24 hrs by HPLC in presence of calcium ionophore A23187
T1 sequence (O97554 whole entry): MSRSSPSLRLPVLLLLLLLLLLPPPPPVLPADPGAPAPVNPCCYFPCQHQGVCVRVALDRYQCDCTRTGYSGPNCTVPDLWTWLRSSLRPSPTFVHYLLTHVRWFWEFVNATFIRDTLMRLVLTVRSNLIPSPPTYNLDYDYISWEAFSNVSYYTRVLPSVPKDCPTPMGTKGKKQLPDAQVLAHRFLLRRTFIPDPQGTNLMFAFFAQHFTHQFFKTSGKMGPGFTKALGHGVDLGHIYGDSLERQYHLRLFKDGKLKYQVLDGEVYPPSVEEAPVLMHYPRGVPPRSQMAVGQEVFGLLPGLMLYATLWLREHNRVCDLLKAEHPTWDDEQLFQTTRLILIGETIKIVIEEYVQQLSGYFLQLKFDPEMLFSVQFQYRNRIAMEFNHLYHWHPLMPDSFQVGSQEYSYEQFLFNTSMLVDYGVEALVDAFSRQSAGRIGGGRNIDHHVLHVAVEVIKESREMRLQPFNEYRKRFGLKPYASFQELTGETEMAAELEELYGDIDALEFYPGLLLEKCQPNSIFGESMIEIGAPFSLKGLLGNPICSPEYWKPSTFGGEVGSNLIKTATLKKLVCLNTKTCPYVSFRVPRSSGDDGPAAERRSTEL

[5] = system: Rattus norvegicus; experiment: Antiinflammatory activity in Wistar rat assessed as inhibition of carrageenan-induced paw edema at 10.12 mg/kg, po administered 1 hr before carrageenan challenge measured at 1 hr by plethysmometer; type: functional
[6] = system: Rattus norvegicus; experiment: Antiinflammatory activity in Wistar rat assessed as inhibition of carrageenan-induced paw edema at 10.12 mg/kg, po administered 1 hr before carrageenan challenge measured at 6 hrs by plethysmometer; type: functional
[7] = system: Rattus norvegicus; experiment: Antiinflammatory activity in Wistar rat assessed as inhibition of carrageenan-induced paw edema at 10.12 mg/kg, po administered 1 hr before carrageenan challenge measured at 3 hrs by plethysmometer; type: functional
[8] = molecular target: T2, Prostaglandin G/H synthase 2 (Oryctolagus cuniculus, UniProt O02768); experiment: Inhibition of COX-2 in rabbit peripheral venous blood assessed as formation of 12-hydroxyheptadecatrienoic acid after 24 hrs in by HPLC presence of calcium ionophore […] and lipopolysaccharide; type: tissue-based
T2 sequence (O02768 whole entry): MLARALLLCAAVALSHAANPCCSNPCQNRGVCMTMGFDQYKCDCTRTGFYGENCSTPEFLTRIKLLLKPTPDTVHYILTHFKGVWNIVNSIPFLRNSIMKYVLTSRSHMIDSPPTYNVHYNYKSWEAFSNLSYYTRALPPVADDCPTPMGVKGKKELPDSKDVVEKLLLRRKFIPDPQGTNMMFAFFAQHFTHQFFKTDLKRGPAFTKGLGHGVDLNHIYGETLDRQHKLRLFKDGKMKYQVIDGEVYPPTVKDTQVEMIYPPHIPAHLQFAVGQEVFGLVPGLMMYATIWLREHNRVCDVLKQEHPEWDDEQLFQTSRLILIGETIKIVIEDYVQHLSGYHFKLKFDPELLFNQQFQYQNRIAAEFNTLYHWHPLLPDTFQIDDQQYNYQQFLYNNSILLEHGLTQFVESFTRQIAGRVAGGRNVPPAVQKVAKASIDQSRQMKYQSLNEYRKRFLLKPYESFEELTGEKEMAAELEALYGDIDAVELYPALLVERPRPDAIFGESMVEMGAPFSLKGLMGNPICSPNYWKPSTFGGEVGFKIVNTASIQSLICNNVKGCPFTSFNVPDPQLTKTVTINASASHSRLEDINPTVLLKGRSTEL

[9] = system: Mus musculus; experiment: Analgesic activity in BALB/c mouse assessed as inhibition of acetic acid-induced writhing response for 15 mins at 20.24 mg/kg, po; type: functional; settings: 0.25 h
[10] = system: Mus musculus; experiment: Analgesic activity in BALB/c mouse assessed as inhibition of acetic acid-induced writhing response for 15 mins at 18.16 mg/kg, po; type: functional; settings: 0.25 h
[11] = system: Rattus norvegicus; experiment: Antiinflammatory activity in Wistar rat assessed as inhibition of carrageenan-induced paw edema at 9.08 mg/kg, po administered 1 hr before carrageenan challenge measured at 3 hrs by plethysmometer; type: functional
[12] = system: Rattus norvegicus; experiment: Ulcerogenic effect in Wistar rat assessed as gastric ulcer area at 9.08 mg/kg, po administered for 7 days by microscopy; type: toxicity, organism-based, Stomach; parameters: dose 9.08 mg/kg, route oral; settings: in vivo, 168 h
[13] = system: Rattus norvegicus; experiment: Antiinflammatory activity in Wistar rat assessed as inhibition of carrageenan-induced paw edema at 9.08 mg/kg, po administered 1 hr before carrageenan challenge measured at 6 hrs by plethysmometer; type: functional
[14] = system: Rattus norvegicus; experiment: Antiinflammatory activity in Wistar rat assessed as inhibition of carrageenan-induced paw edema at 9.08 mg/kg, po administered 1 hr before carrageenan challenge measured at 1 hr by plethysmometer; type: functional
[15] = system: Rattus norvegicus; experiment: Antiinflammatory activity in Wistar rat assessed as inhibition of carrageenan-induced paw edema at 10.15 mg/kg, po administered 1 hr before carrageenan challenge measured at 3 hrs by plethysmometer; type: functional
[16] = system: Rattus norvegicus; experiment: Antiinflammatory activity in Wistar rat assessed as inhibition of carrageenan-induced paw edema at 10.15 mg/kg, po administered 1 hr before carrageenan challenge measured at 6 hrs by plethysmometer; type: functional
[17] = system: Rattus norvegicus; experiment: Ulcerogenic effect in Wistar rat assessed as gastric ulcer area at 10.15 mg/kg, po administered for 7 days by microscopy; type: toxicity, organism-based, Stomach; parameters: dose 10.15 mg/kg, route oral; settings: in vivo, 168 h
[18] = system: Mus musculus; experiment: Analgesic activity in BALB/c mouse assessed as inhibition of acetic acid-induced writhing response for 15 mins at 20.30 mg/kg, po; type: functional; settings: 0.25 h
[19] = system: Rattus norvegicus; experiment: Antiinflammatory activity in Wistar rat assessed as inhibition of carrageenan-induced paw edema at 10.15 mg/kg, po administered 1 hr before carrageenan challenge measured at 1 hr by plethysmometer; type: functional
[20] = system: Rattus norvegicus; experiment: Antiinflammatory activity in Wistar rat assessed as inhibition of carrageenan-induced paw edema at 9.65 mg/kg, po administered 1 hr before carrageenan challenge measured at 1 hr by plethysmometer; type: functional
[21] = system: Rattus norvegicus; experiment: Antiinflammatory activity in Wistar rat assessed as inhibition of carrageenan-induced paw edema at 9.65 mg/kg, po administered 1 hr before carrageenan challenge measured at 6 hrs by plethysmometer; type: functional
[22] = system: Rattus norvegicus; experiment: Antiinflammatory activity in Wistar rat assessed as inhibition of carrageenan-induced paw edema at 9.65 mg/kg, po administered 1 hr before carrageenan challenge measured at 3 hrs by plethysmometer; type: functional
[23] = system: Rattus norvegicus; experiment: Ulcerogenic effect in Wistar rat assessed as gastric ulcer area at 9.65 mg/kg, po administered for 7 days by microscopy; type: toxicity, organism-based, Stomach; parameters: dose 9.65 mg/kg, route oral; settings: in vivo, 168 h
[24] = system: Mus musculus; experiment: Analgesic activity in BALB/c mouse assessed as inhibition of acetic acid-induced writhing response for 15 mins at 19.30 mg/kg, po; type: functional; settings: 0.25 h

| IC50 [3] | IC50 [4] | IC50 [8] | Compound | Ratio IC50 [2] | further results |
| --- | --- | --- | --- | --- | --- |
| 2.99 µM | 0.24 µM | 2.39 µM | CS(=O)(=O)c1ccc(/C=C2/C(=O)Nc3cc(Cl)ccc32)cc1 | 0.1 | Activity [1]: 0.75 mm2; inhibition in vivo at 10.12 mg/kg [5]: 19.4%; inhibition in vivo at 10.12 mg/kg [6]: 21.6%; inhibition in vivo at 10.12 mg/kg [7]: 23.8%; inhibition in vivo at 20.24 mg/kg [9]: 55.2% |
| 9.51 µM | 9.32 µM | 5.52 µM | CS(=O)(=O)c1ccc(/C=C2/C(=O)Nc3ccccc32)cc1 | 1.69 | inhibition in vivo at 18.16 mg/kg [10]: 54.4%; inhibition in vivo at 9.08 mg/kg [11]: 38.9%; Activity [12]: 0.56 mm2; inhibition in vivo at 9.08 mg/kg [13]: 21.6%; inhibition in vivo at 9.08 mg/kg [14]: 28.6% |
| 3.37 µM | 0.16 µM | 3.31 µM | NS(=O)(=O)c1ccc(/C=C2/C(=O)Nc3ccc(Cl)cc32)cc1 | 0.05 | inhibition in vivo at 10.15 mg/kg [15]: 33.3%; inhibition in vivo at 10.15 mg/kg [16]: 19.6%; Activity [17]: 0.19 mm2; inhibition in vivo at 20.3 mg/kg [18]: 80.7%; inhibition in vivo at 10.15 mg/kg [19]: 19.1% |
|  | 37.6 µM | 0.11 µM | CC(C)(C)c1cc(/C=C2\SC(N)=NC2=O)cc(C(C)(C)C)c1O [DARBUFELONE MESYLATE] |  |  |
| > 50 µM | > 50 µM | > 50 µM | Cc1ccc2c(c1)/C(=C\c1ccc(S(N)(=O)=O)cc1)C(=O)N2 |  |  |
| 10.6 µM | 24.6 µM | 20.9 µM | NS(=O)(=O)c1ccc(/C=C2/C(=O)Nc3ccc(Br)cc32)cc1 | 1.18 |  |
| > 50 µM | > 50 µM | 3.82 µM | CS(=O)(=O)c1ccc(/C=C2/C(=O)Nc3ccc(Cl)cc32)cc1 |  | Activity [1]: 0.88 mm2; inhibition in vivo at 10.12 mg/kg [5]: 14.3%; inhibition in vivo at 10.12 mg/kg [6]: 41.7%; inhibition in vivo at 10.12 mg/kg [7]: 15.7%; inhibition in vivo at 20.24 mg/kg [9]: 63.3% |
| 9.87 µM | 0.62 µM | 0.18 µM | NS(=O)(=O)c1ccc(/C=C2/C(=O)Nc3ccc(F)cc32)cc1 | 3.44 | inhibition in vivo at 9.65 mg/kg [20]: 33.3%; inhibition in vivo at 9.65 mg/kg [21]: 27.4%; inhibition in vivo at 9.65 mg/kg [22]: 44.4%; Activity [23]: 0.45 mm2; inhibition in vivo at 19.3 mg/kg [24]: 54% |
